The values below are quoted from earlier work in patent US20030100464A1, “Dishwashing compositions containing alkylbenzenesulfonate surfactants” (priority 2001, published 2003).

B1: D96L: D96L lipolytic enzyme variant of the native lipase derived from Humicola lanuginosa (protein, UniProt O59952 23-291, looked up, variant D96L)
Lipase: EVSQDLFNQFNLFAQYSAAAYCGKNNDAPAGTNITCTGNACPEVEKADATFLYSFEDSGVGDVTGFLALDNTNKLIVLSFRGSRSIENWIGNLNFLLKEINDICSGCRGHDGFTSSWRSVADTLRQKVEDAVREHPDYRVVFTGHSLGGALATVAGADLRGNGYDIDVFSYGAPRVGNRAFAEFLTVQTGGTLYRITHTNDIVPRLPPREFGYSHSSPEYWIKSGTLVPVTRNDIVKIEGIDATGGNNQPNIPDIPAHLWYFGLIGTCL

The conditions of the first data set: enzymes compared at 0.075 to 2.5 mg protein per liter.
With B1, the “improvement of lard stain removal efficiency, factor over the wild-type lipase” value was 4.4.

For a further data set the following is noted: all-aqueous solution at 25° C., ionic strength 0.1 to 0.5 M.
Turning to `NCCCN` [1,3 propane diamine], the pK1 is on record as 10.5 and the pK2 is given as 8.8. On to `NCCCCCCN` [1,6 hexane diamine], for which the pK1 is given as 11 and the pK2 is 10. With `CCC(N)CCN` (stereo not drawn) [1,3 pentane diamine], the pK1 is recorded as 10.5 and the pK2 is 8.9. Regarding `CC(CN)CCCN` (stereo not drawn) [2-methyl 1,5 pentane diamine], the pK1 is reported as 11.2 and the pK2 was 10.0.
